Measurements from US7041276B2, “Methods of screening agents for activity using teleosts” (priority 1998, dated 2006).
“Also recorded” adds a separate entry of the source.

Assays:
zebrafish embryos = test: Five-day zebrafish toxicity testing; assay type: in vivo; details: for Zebrafish specific toxicity observed: five-day exposure
Experimental: Fertilized zebrafish embryos were obtained by natural spawning in our aquaculture facility. To reduce variations between batches, randomized samples of embryos from 3 or 4 independent matings were used. The test medium was prepared by combining 5 g of Instant Ocean Salt with 3 g of CaSO4 in 25 liters of distilled water, according to Westerfield, supra. The embryos were maintained in the test medium throughout the experiments. Embryos at 24 hours of development (with chorion) were exposed continuously for five days to chemical compounds at different concentrations of the chemical compounds and controls. In general, the concentrations ranged from 100 nanomolar (nM) to 100 micromolar (μM). Tests were repeated four times for each series of dilutions, and a standard deviation was calculated for each treatment (see “Statistical Methods” section). Ten embryos per concentration were exposed in a total volume of 1 ml (constant ratio of 100 μl/embryo) using a 24 multi-well plate. (Other sizes of multi-well plates, such as 96-well plates can also be used to facilitate screening.) The compounds were renewed daily. In all cases, 0.1% of dimethyl sulfoxide (DMSO) was used as a carrier solvent during the treatment. Controls with and without 0.1% DMSO were performed in all experiments. This approach has long been used to introduce anesthetics and other chemicals into fish embryos (Westerfield, supra).
Experiments were carried out at a constant temperature (28–28.5° C.) in the dark to protect the compounds from decomposition due to light exposure. Dead embryos were removed daily, counted, and used to calculate the Median Lethal Concentration (LC50, see “Statistical Methods” section herein). Each day, surviving embryos were analyzed visually under a dissecting binocular microscope (Zeiss, amplification 30–50×). Macroscopic malformations (such as axial defects, embryolethality, growth inhibition, general malformations, including microcephaly, macrocephaly, tail truncation, tail malformation, loss of axial structures, such as somites, etc.) were observed, classified, and counted to assess whole animal toxicity. Compounds that were lethal or induced these or any noted malformations or disruptions during development (e.g., during the first 5 days of development) were further examined for toxic effects on organs. The embryonic developmental stage that is affected by the toxic compound can be determined. Organ toxicity can be assessed in surviving embryos using in situ hybridization, enzymatic assays, and immunochemistry procedures.
Toxic activity in the kidney (Pronephros) can be assessed visually by colorimetric staining of the kidney of the treated whole animal (e.g., zebrafish). Zebrafish pronephros express high levels of the enzyme alkaline phosphatase that can be easily assayed using a chromogenic dye. To stain kidneys in zebrafish embryos, embryos were fixed with 2% paraformaldehyde overnight at 4° C. and then treated with methanol 100% for 30 minutes at room temperature. […]
For the concentrations tested with aspirin and dexamethasone in these studies, there was no partial lethality and the geometric mean of the parameters “no mortality” (0%) and “mortality” (100%) of the effect concentration was taken as the LC50 and binomial confidence limits were calculated according to Stephan, “Methods for Calculating LD50” in Aquatic Toxicology and Hazard Evaluation (F. L. Mayce and J. L. Hamelink eds.) ASTM STP 634, pp. 65–84. […]

[1] = system: liver of zebrafish embryos; test: Liver staining with streptavidin-peroxidase (DAB visual, ABTS colorimetric); assay type: in vivo
Source text: Toxic activity in the liver of the treated whole animal can be assessed visually by using a rapid colorimetric staining procedure. This procedure is based on the use of a streptavidin (avidin) conjugated reporter enzyme, such as peroxidase, to detect naturally biotinylated carboxylase enzymes in the liver, gut, and digestive tube of whole animals, such as zebrafish embryos. These biotinyl-lysine containing enzymes, such as acetyl-CoA carboxylase and other carboxylases, are predominantly located in the liver and digestive tube. As a result, staining is organ specific (FIG. 11). Quantitative biotinylated assessment of the liver can be made. By visual detection of biotinylation, size and location of the liver can be determined.
Zebrafish embryos (4, 5 or 6 days old) were fixed with 4% paraformaldehyde for 1 hour at room temperature and treated with methanol 100% overnight at −20° C. The embryos were rehydrated and washed with PBST. […] The embryos were then washed twenty minutes three times with PBST and stained for peroxidase with two different dyes: Diaminobenzidine (DAB) (Pierce) (insoluble) to assess liver staining and 2,2′-Azino-bis(3-Ethylbenz-thiazoline-6-sulfonic acid)(ABTS)(Sigma)(soluble) to measure a quantitative visual signal using a colorimetric method. […] The ABTS signal was detected by measuring the absorbance of the solution at 405 nanometer […] using a spectrophotometer. […]

mice = details: i.p. (intraperitoneal); cited from earlier work
rats = details: i.p. (intraperitoneal); cited from earlier work
mice and rats = details: TOXNET Web Search and other sources; cited from earlier work

In the case of C[C@@H]1C[C@H]2[C@@H]3CCC4=CC(=O)C=C[C@]4(C)[C@@]3(F)[C@@H](O)C[C@]2(C)[C@@]1(O)C(=O)CO [Dexamethasone], the “Zebrafish LD50” value (zebrafish embryos; embryos exposed continuously for five days from 24 hours of development) was 324 mg/L, the “Zebrafish specific toxicity observed” value (zebrafish embryos) was “liver,; also recorded: gastro-” and the “Zebrafish specific toxicity observed” value (zebrafish embryos; listed as dexamethasone) was “Liver and gastrointestinal toxicity”. The “liver size compared with control embryos” value ([1]; 100 μM for five days, six day old embryo) was “dramatic reduction in liver size”, the “reduction of the colorimetric liver signal (ABTS, 405 nm) compared with untreated embryos” value ([1]; 100 μM, five days) was “about 70%” and the “Mammalian models LD50” value (mice) was 410 (mice, i.p.) mg/kg. The “Mammalian models LD50” value (rats) was 54 (rats, i.p.) mg/kg and the “Mammalian models specific toxicity (from the literature)” value (mice and rats) was “liver,; also recorded: gastro-”.
